Key:
[1] = system: HMVEC-L cells; experiment: NO production (DAF-FM DA fluorescence) in HMVEC-L cells; type: cell-based, Human; conditions: CHP 0, 1, 10, 100 and 500 μM, serum-free medium, 2 hours, versus control not treated with CHP
Method: Human lung microvascular cells (HMVEC-L, CC2527) were obtained from the American Type Culture Collection (ATCC), and EBM-2 basal medium and EGM-2 MV microvascular endothelial cell growth medium SingleQuots supplements were purchased from Lonza.
HUVEC-L cells were cultured in EBM-2 medium supplemented with EGM-2 MV SingleQuots at 37° C. and 5% CO2 conditions. The medium was replaced every 2 to 3 days, and subculture was performed at 70 to 80% confluency.
5×10^4 cells were placed in a black 96-well plate, incubated for 24 hours and treated with CHP at concentrations of 0, 1, 10, 100 and 500 μM in serum-free medium, respectively, and cultured at 37° C. and 5% CO2 conditions for 2 hours. DAF-FM DA (DAF-FM Diacetate; Invitrogen) at a concentration of 5 μM was added and further incubated for 30 minutes, and it was washed once with PBS and observed with a fluorescence microscope at FITC wavelength. Photographs were taken at the same exposure time, and the fluorescence intensity of each cell was measured by using the ImageJ tool. Statistical significance was analyzed by one-way ANOVA statistical method, and comparison with the control group which was not treated with CHP was analyzed by Dunnett's test (****p<0.0001).

[2] = system: eNOS gene; experiment: eNOS gene expression (real-time PCR) in SVEC4-10 cells; type: cell-based, mouse; conditions: CHP 0, 10, 100 and 250 μM, serum-free medium, 2 hours, corrected by β-actin
Method: SVEC4-10 (CRL-2181), which is a mouse endothelial cell line, was obtained from the American Type Culture Collection (ATCC), and RPMI-1640 medium and FBS were purchased from Hyclone.
SVEC4-10 cells were cultured at 37° C. and 5% CO2 conditions by using RPMI-1640 medium containing 10% FBS and 1% penicillin/streptomycin, and subculture was performed every 2 days.
SVEC4-10 cells were placed in a 6-well plate at 5×10^5 cells and cultured for 24 hours. CHP was treated at concentrations of 0, 10, 100 and 250 μM in serum-free medium, respectively, and then it was cultured at 37° C. and 5% CO2 conditions for 2 hours. Thereafter, the medium was removed, and it was washed once with cold PBS and then immediately dissolved using NucleoZOL.
For RNA extraction, RNA was extracted according to the manufacturer's total RNA isolation protocol by using NucleoZOL (MACHEREY-NAGEL), and 1 μg of RNA was subjected to reverse transcription polymerase chain reaction to synthesize cDNA by using iScript cDNA synthesis kit (Bio-Rad). The synthesized cDNA was analyzed by real-time PCR using iQ SYBR Green Supermix (Bio-Rad) by using the primer set of the eNOS gene.
Each gene expression value was corrected by dividing by the expression value of β-actin, which is a housekeeping gene. Statistical significance was analyzed by the Student's t-test statistical method (*p<0.05).

[3] = system: AT2R (angiotensin II type 2 receptor); experiment: AT2R protein expression (Western blot) in angiotensin II-treated HUVEC cells; type: cell-based, Human; conditions: HUVEC cells treated with Ang II and CHP, versus Ang II-treated control; corrected by β-actin
Method: (§1) Human umbilical vein endothelial cells (HUVEC, CRL-1730) were obtained from the American Type Culture Collection (ATCC), and EBM-2 basal medium and EGM-2 MV microvascular endothelial cell growth medium SingleQuots supplements were purchased from Lonza.
(§2) HUVEC cells were cultured in EBM-2 medium supplemented with EGM-2 MV SingleQuots supplements at 37° C. and 5% CO2 conditions. The medium was replaced every 2 to 3 days, and subculture was performed at 70 to 80% confluency.
(§3) HUVEC cells treated with angiotensin II and CHP were placed in 500 uL of RIPA buffer containing protease and phosphatase inhibitors, and then pulverized by using IKA's T10 homogenizer. […] The supernatant was collected and the protein concentration was measured by BCA quantitation, and the same amount of samples was separated by using the Bolt TM protein gel electrophoresis system, and then transferred to a nitrocellulose membrane. […] After washing 3 times for 10 minutes with TBST, the expression level was measured by reacting with ECL. The size of the appearing band was quantified by using the ImageJ program and corrected by dividing the size value of each band by the size value of the β-actin band. Statistical significance was analyzed by using Student's t-test statistical method with angiotensin II-treated control group (Ang II) (*p<0.05, […], ***p<0.0005).

[4] = system: VE-cadherin; experiment: VE-cadherin protein expression (Western blot) in angiotensin II-treated HUVEC cells; type: cell-based, Human; conditions: HUVEC cells treated with Ang II and CHP, versus Ang II-treated control; corrected by β-actin
Method: as §1, §2, §3

[5] = system: ⅚ nephrectomy rats; experiment: Prophylactic (pre-treatment) blood pressure control in ⅚ nephrectomy rats; type: in vivo; conditions: ⅚ nephrectomy SD rats; oral 35 mg/kg every other day for 8 weeks from 3 days before nephrectomy; tail artery; SHAM 127.8, disease control (Nx) 196.2
Text: 1-1. Construction of ⅚ Nephrectomy Model and Cyclo-HisPro Administration
The kidney is involved in water and sodium metabolism and is closely associated with the renin-angiotensin system, and thus, kidney disease itself, that is, glomerulitis or renal failure, may cause hypertension and play an important role in the development of essential hypertension. Chronic renal failure through nephrectomy in rats leads to continued progression of hypertension, uremia, proteinuria and glomerulosclerosis.
After pre-bringing 7-week-old SD rats purchased from Koatech Co., Ltd. for more than one week, the experimental group underwent surgery in two stages. […]
In order to reduce the error range of blood pressure measurement, the experimental animals were calibrated in the holder of a blood pressure meter (BP-2000 blood pressure analysis system, rat platform 2-channel, Visitech Systems, Apex, NC, USA) and then acclimatized in a heating chamber at 37° C. for 30 minutes, and the systolic blood pressure was measured at least 5 times in the tail artery to obtain the average value. […]

[6] = system: AT1R (angiotensin II type I receptor); experiment: AT1R protein expression (Western blot) in angiotensin II-treated HUVEC cells; type: cell-based, Human; conditions: HUVEC cells treated with Ang II and CHP, versus Ang II-treated control; corrected by β-actin
Method: as §1, §2, §3

[7] = system: ⅚ nephrectomy rats; experiment: Therapeutic (post-treatment) blood pressure control in ⅚ nephrectomy rats; type: in vivo; conditions: ⅚ nephrectomy SD rats; oral 35 mg/kg every other day for 6 weeks from 2 weeks after nephrectomy; tail artery; SHAM 127.8, disease control (Nx) 196.2
Method: After pre-bringing 7-week-old SD rats purchased from Koatech Co., Ltd. for more than one week, the experimental group underwent surgery in two stages. After general anesthesia, incision was performed along the midline of the abdomen to separate the left kidney from the adrenal glands and surrounding tissues, and after holding the renal blood vessel with forceps to prevent bleeding, the upper ⅓ and lower ⅓ of the left kidney were removed, and after 1 week, general anesthesia was performed again, and the entire right kidney was removed to complete a ⅚ nephrectomy model.
In order to reduce the error range of blood pressure measurement, the experimental animals were calibrated in the holder of a blood pressure meter (BP-2000 blood pressure analysis system, rat platform 2-channel, Visitech Systems, Apex, NC, USA) and then acclimatized in a heating chamber at 37° C. for 30 minutes, and the systolic blood pressure was measured at least 5 times in the tail artery to obtain the average value. The significance of the experimental results was verified by performing t-test for each group of the disease control group (Nx), the normal control group and the Cyclo-HisPro administration group, and there was a statistically significant difference (**p<0.005, ***p<0.0005, ****p<0.00005).
2-1. Construction of ⅚ Nephrectomy Model and Administration of Cyclo-HisPro […]

O=C1N[C@@H](Cc2cnc[nH]2)C(=O)N2CCC[C@@H]12 [Cyclo-HisPro]
NO production (intensity of DAF-FM DA fluorescence) [1]: significantly increased | expression of the eNOS gene [2]: significantly increased | AT2R protein expression [3]: tended to increase | VE-cadherin protein expression [4]: statistically significantly increased | systolic blood pressure [5]: 156.7 mmHg | AT1R protein expression [6]: statistically significantly decreased | systolic blood pressure [7]: 171.6 mmHg

— patent US12678437B2, “Use of Cyclo-HisPro (CHP) for lowering blood pressure” (NOVMETAPHARMA CO., LTD., priority 2020, dated 2026)
